CCC(CC)N1CCNc2c1cc(C)nc2Oc1c(C)cc(C)cc1C [Example 4, 1-(1-Ethyl-propyl)-7-methyl-5-(2,4,6-trimethyl-phenoxy)-1,2,3,4-tetrahydro-pyrido[3,4-b]pyrazine]
melting point: 138 to 140 °C
